Results from patent publication US20250144131A1, “POLYSACCHARIDE COMPOUND WITH A DEFINED MOLECULAR STRUCTURE FOR THE TREATMENT OF PULMONARY FIBROSIS” (SHENZHEN YANDAI INVESTMENT CO., LTD, priority 2023, published 2025).

Columns and labels:
Format in all cases: in vivo, C57BL/6J mice
[1] = test system: bleomycin-induced pulmonary fibrosis model; experiment: Lung function test (EMKA WBP) in bleomycin-induced pulmonary fibrosis mice
Procedure: (§1) Fifty male SPF C57BL/6J mice were randomized by weight into the normal control group, model control group, positive control group, GLP-4 low-dose group, and GLP-4 high-dose group, with 10 animals in each group. Ten animals not subjected to modeling served as the normal control group. The remaining animals were modeled by administering bleomycin via tracheal injection at 5 mg/kg, 0.1 mL per mouse, one-time administration. Starting on day 7 post-modeling, the study drug, positive drug, or solvent was administered orally at 10 mL/kg once daily for 21 consecutive days. During the experimental period, daily observations were made for each group's food intake, activity, breathing, and responsiveness; pulmonary function was tested before administration and about 24 h after the last dose. After completing pulmonary function tests, the mice were euthanized for pathological sampling.
Lung function: Lung function in mice was measured using the EMKA WBP animal lung function assessment system both before administration and approximately 24 h after the last dose. Measurements included inspiratory (expiratory) duration, maximum inspiratory (expiratory) volume, tidal volume, expiratory volume, relaxation time, minute ventilation, respiratory rate, end inspiratory (expiratory) pause, bronchoconstriction parameters, 50% expiratory flow, alveolar ventilation, and number of breaths.

[2] = test system: bleomycin-induced pulmonary fibrosis model; experiment: General behavioral observation in bleomycin-induced pulmonary fibrosis mice; settings: oral 21 days, pirfenidone 225 mg/kg, GLP-4 low-dose 200 mg/kg
Procedure: as §1
General behavioral observation: During the trial period, daily observations were made on the animals' consumption, activity, breathing, and responsiveness.

[3] = test system: bleomycin-induced pulmonary fibrosis model; experiment: Pulmonary histopathology (H&E, pathology scores) in bleomycin-induced pulmonary fibrosis mice
Procedure: as §1
Pulmonary histopathology: Following lung function tests, mice were euthanized, and a laparotomy was performed. Whole-body perfusion was conducted using saline through the portal vein followed by thoracotomy and perfusion-fixation with 10% formaldehyde solution for 5 min. The trachea was then ligated, the lungs were harvested, and further fixed in formalin solution for 48 h. Hematoxylin and eosin (H&E) staining was performed to observe pathological changes.

[4] = 21 days post-dosing, pirfenidone 225 mg/kg po daily
[5] = prior to administration (one week post-modeling), pirfenidone 225 mg/kg group

SMILES: Cc1ccc(=O)n(-c2ccccc2)c1 [positive control, pirfenidone]
- AV (alveolar ventilation) [1, 4]: 119.87 ± 38.33 mL
- EEP (end expiratory pause) [1, 4]: 5.89 ± 0.57 ms
- EF50 (50% expiratory flow) [1, 4]: 5.31 ± 0.91 mL/s
- EIP (end inspiratory pause) [1, 4]: 18.83 ± 9.94 ms
- EV (expiratory volume) [1, 4]: 0.14 ± 0.01 mL
- MV (minute ventilation) [1, 4]: 64.98 ± 11.84 mL
- PEF (peak expiratory flow) [1, 4]: 5.59 ± 0.86 mL/s
- PIF (peak inspiratory flow) [1, 4]: 4.49 ± 0.75 mL/s
- Penh (bronchoconstriction parameters) [1, 4]: 0.56 ± 0.22
- RT (relaxation time) [1, 4]: 57.72 ± 22.68 ms
- TV (tidal volume) [1, 4]: 0.14 ± 0.01 mL
- Te (expiratory duration) [1, 4]: 73.20 ± 22.54 ms
- Ti (inspiratory duration) [1, 4]: 79.85 ± 12.82 ms
- n (number of breaths) [1, 4]: 40.22 ± 17.53
- Lung function indices compared to the model control group ([1]; bleomycin mice, 21 days post-dosing, pirfenidone 225 mg/kg, GLP-4 low-dose 200 mg/kg): significant increases in PIF, PEF, TV, EV, MV, EF50, and alveolar ventilation (AV)
- AV (alveolar ventilation) [1, 5]: 70.49 ± 10.76 mL
- EEP (end expiratory pause) [1, 5]: 5.70 ± 0.71 ms
- EF50 (50% expiratory flow) [1, 5]: 5.68 ± 0.95 mL/s
- EIP (end inspiratory pause) [1, 5]: 62.63 ± 33.56 ms
- EV (expiratory volume) [1, 5]: 0.15 ± 0.02 mL
- MV (minute ventilation) [1, 5]: 52.78 ± 12.68 mL
- PEF (peak expiratory flow) [1, 5]: 5.94 ± 0.94 mL/s
- PIF (peak inspiratory flow) [1, 5]: 4.63 ± 0.69 mL/s
- Penh (bronchoconstriction parameters) [1, 5]: 0.44 ± 0.15
- RT (relaxation time) [1, 5]: 105.6 ± 46.61 ms
- TV (tidal volume) [1, 5]: 0.15 ± 0.02 mL
- Te (expiratory duration) [1, 5]: 120.91 ± 48.12 ms
- Ti (inspiratory duration) [1, 5]: 109.26 ± 23.25 ms
- n (number of breaths) [1, 5]: 23.82 ± 4.54
- General behavior compared to the model control group [2]: noticeable improvements in appetite, activity, breathing, responsiveness, and fur condition
- Fibrotic tissue proliferation ([3]; bleomycin mice, H&E, pirfenidone 225 mg/kg, GLP-4 low-dose 200 mg/kg): no fibrotic tissue proliferation
- Pathology score ([3]; lung, pirfenidone 225 mg/kg po daily, 21 days): 6.22 ± 3.31
